From US20150284362A1, “CARBAZOLE-CONTAINING AMIDES, CARBAMATES, AND UREAS AS CRYPTOCHROME MODULATORS” (ReSet Therapeutics, Inc., priority 2014, published 2015)

How the values were obtained:
[1] = tested on: core clock gene mRNAs in liver; experiment: Four day study, liver core clock gene mRNA, ICR mice; format: in vivo, mouse; details: 50 mg/kg PO BID 4 days, ZT6
Experimental: Male ICR mice (weighing 30-35 g), obtained from Charles River Laboratories (Hollister, Calif.), were used for the experiment following at least 3 days of acclimation. Mice were dosed with vehicle (WFI or 10% Kolliphor) or compound (50 mg/kg, dose volume 5 mL/kg, PO) for 4 days BID (twice a day), beginning in the afternoon of the first day. The last dose of compound or vehicle was administered on the morning of harvest. On the day of harvest (6 hours following the final dose), mice were euthanized by CO2 asphyxiation and 50 mg of liver tissue was excised and placed in a tube containing 500 μl of RNA later.
E.Z.N.A.® HP Total RNA Isolation Kits (R6812-01 and the protocol described in the Manual, Revised 2010) were utilized to prepare and isolate RNA from the liver samples. To prepare the RNA samples, 10-30 mg of sample was removed from RNA-Later and placed in a 1.5 ml microfuge tube. […] The cleared supernatant was transferred by pipetting to a DNA Clearance Column Pre-inserted in a 2 mL Collection Tube. The assembled column was centrifuged at 13,000×g for 1 minute, and the flow-through was saved. An equal volume (700 μl) of 70% ethanol was added to the lysate and mixed. The sample was then applied to a HiBind RNA spin column placed into a 2 ml collection tube, which was centrifuged at 10,000×g for 60 seconds at room temperature. RNA Wash Buffer I (250 μl) was added by pipetting directly onto a new HiBind RNA column inserted in a 2 ml collection tube. The assembled column was centrifuged at 10,000×g for 60 seconds. The RNA column was placed into a new 2 ml collection tube. […] The column with bound RNA was incubated at room temperature (25-30° C.) for 15 minutes. RNA Wash Buffer I (500 μl) was added to the column and placed on a bench top for 2 minutes. After centrifuging at 10,000×g for 60 seconds, discarding the flow-through, 500 μl of RNA Wash Buffer II was added and centrifuged at 10,000×g for 60 seconds. Another 500 μl of RNA Wash Buffer II was added and the column assembly was centrifuged at 10,000×g for 60 seconds. The column was centrifuged for 2 minutes at maximum speed to completely dry the HiBind matrix. The column was placed in a clean 1.5 ml microcentrifuge tube and 40-70 μl of molecular biology grade water is added. After sitting for 1 minute, the column was centrifuged for 2 minutes at maximum speed to elute the RNA. The isolated RNA was collected into the collection tube.
RediPlate 96 RiboGreen RNA Quantification Kit (Invitrogen) RediPlate standard curve was prepared by transferring 20 μl reconstituted RNA standard to a RediPlate well reconstituted in 180 μl RediPlate TE buffer. For liver RNAs prepared from 30-100 mg of tissue using a kit similar to the Omega Bio-Tek HP Total RNA Kit and eluted in RNAse-free water in a volume of 50 μl (microliters), 5 μl of the total RNA is diluted in 195 μl of RediPlate TE buffer (1:40 dilution of RNA), mix. […] Alternatively, one can use the FlexStation 3 with Ex 488 nm and Em 525 nm and a Cutoff of 515 nm.

C57/Bl6J DIO mice [2] = experiment: 7 day dosing in diet-induced obesity (DIO) mouse model of type II diabetes; format: in vivo; details: 30 mg/kg PO QD 7 days (positive control)
From the text: (§1) Male C57/Bl6J DIO mice were obtained from The Jackson Laboratory (Sacramento, Calif.). […] Animals were accustomed to these conditions for at least 2 weeks before experimentation and used at approximately 24 weeks of age.
(§2) Significance was accepted when p<0.05.

C57/Bl6J DIO mice [3] = experiment: Increasing dosages of Compound 72 over 7 days in diet-induced obesity (DIO) mouse model; format: in vivo; details: 30 mg/kg PO QD 7 days
From the text: as §1, §2
Male C57/Bl6J DIO mice were obtained from The Jackson Laboratory (Sacramento, Calif.). […] Animals were accustomed to these conditions for at least 2 weeks before experimentation and used at approximately 26 weeks of age.

Experimental for db/db mice: Male db/db mice homozygous for Lepr^db (6 weeks of age), were obtained from The Jackson Laboratory (Bar Harbor, Me.). Mice were group housed on a normal light/dark cycle (lights on: 07:00-19:00 h) with ad libitum access to a standard pelleted mouse diet and water. Animals were accustomed to these conditions for 2 weeks before experimentation. […] At 10:30 pm on the evening prior to endpoint measurement, mice were placed into clean cages and given free access to water, but not food for a period of 12 hours before the fasting blood glucose measurement. On the final day of the study, animals were dosed as normal, and then underwent a tail cut injury 2 hours prior to measurement of fasting blood glucose, to allow recovery from any stress the procedure might cause. Fasting blood glucose (FBG) was assessed from the animals at 10:30 am using an AlphaTRAK glucometer (Abbott Laboratories, USA). Following the FBG measurement blood was collected from each mouse, using a tail milking technique, into a capillary tube. Capillary tubes were centrifuged in a hematocrit (BD Triac 0200) and the resultant plasma transferred to an eppendorff. This sample, labelled as t=0 hr, was frozen at −80° C. to allow later measurement of insulin. At 11:30 am each animal was dosed with 0.5 g/kg of glucose, then blood glucose was measured at t=15, 30, 60, 90 and 120 minutes after glucose load. At the end of the OGTT blood was collected for a t=2 hr insulin determination as described above.
Fasting blood glucose values and glucose measurements taken during the OGTT were averaged and graphed (GraphPad Prism, GraphPad Software, La Jolla, Calif.). The area under the curve (AUC) was calculated for each individual animal. Plasma insulin levels were determined using an Ultrasensitive Insulin ELISA (ALPCO, Salem, N.H.). […] Insulin data was also represented in GraphPad Prism format. Statistical analysis was performed using one-way ANOVA followed by the appropriate post-test. Significance was accepted when p<0.05. Data are presented as mean and S.E.M.

## O=C1C2CCC(C2)N1CC(O)Cn1c2ccc(F)cc2c2cc(F)ccc21 (stereo not drawn) [Compound 48, 2-(3-(3,6-difluoro-9H-carbazol-9-yl)-2-hydroxypropyl)-2-azabicyclo[2.2.1]heptan-3-one]
[1]
  Cry2 transcripts in liver: decrease
  liver Per2 expression: suppression

## CN(CCOc1ccc(CC2SC(=O)NC2=O)cc1)c1ccccn1 (stereo not drawn) [Rosiglitazone]
C57/Bl6J DIO mice [2]
  HOMA-IR: 24.60+/−1.42 units
  fasting blood glucose: 153.9 ± 5.05 mg/dL
  plasma insulin at t=0: 2.70 ± 0.12 ng/mL
  plasma insulin at t=2 hr: 2.30 ± 0.06 ng/mL
C57/Bl6J DIO mice [3]
  fasting blood glucose: 161.1 ± 8.06 mg/dL
db/db mice; 30 mg/kg PO QD 7 days
  HOMA-IR: 50.58+/−3.52 units
  plasma insulin at t=0: 3.05 ± 0.14 ng/mL
  plasma insulin at t=2 hr: 2.28 ± 0.08 ng/mL
db/db mice; 30 mg/kg PO QD 7 days (positive control)
  fasting blood glucose: 280.4 ± 13.66 mg/dL

## COC1CCCN(CC(O)Cn2c3ccc(F)cc3c3cc(F)ccc32)C1=O (stereo not drawn) [Compound 57, 1-(3-(3,6-difluoro-9H-carbazol-9-yl)-2-hydroxypropyl)-3-methoxypiperidin-2-one]
[1]
  liver Per2 expression: suppression
